Molecular target: T1, Drak2 (death-associated protein kinase-related apoptosis-inducing kinase-2) (Homo sapiens, UniProt O94768)
T1 construct: gene STK17B
T1 sequence (O94768 1-372): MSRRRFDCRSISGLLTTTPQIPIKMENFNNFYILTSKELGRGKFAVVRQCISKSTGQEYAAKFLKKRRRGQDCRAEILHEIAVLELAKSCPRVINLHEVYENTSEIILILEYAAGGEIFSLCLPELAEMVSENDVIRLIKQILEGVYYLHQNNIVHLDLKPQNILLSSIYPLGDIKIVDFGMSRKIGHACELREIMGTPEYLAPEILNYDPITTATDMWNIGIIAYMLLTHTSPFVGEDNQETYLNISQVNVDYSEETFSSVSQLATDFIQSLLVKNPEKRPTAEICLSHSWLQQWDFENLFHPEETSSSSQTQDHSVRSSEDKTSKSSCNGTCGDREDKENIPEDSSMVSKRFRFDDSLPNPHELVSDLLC
Assay: biochemical
Set-up: ADP-Glo kinase assay, luminescence, residual Drak2 activity at 20 uM compound
Conditions: read-out: % of control remaining
Protocol: ADP-Glo kits (Promega, Madison, WI; #V6903) were used for Drak2 inhibitor screening. Drak2 activity was measured and calculated from the amount of ADP generated from the enzyme reaction. The compounds were dissolved in DMSO and diluted to the indicated concentration for the screening assay. Drak2 and substrate ATP were diluted in 1X Buffer (HEPES 50 mM (pH 7.0), NaN3 0.02%, Orthovanadate 0.1 mM, 5 mM MgCl2, 0.01% (w/v) bovine serum albumin). The 5 µL kinase reaction was performed using 1X kinase buffer that contained 1 μL of compound, 2 μL of Drak2 (160 nM) and 2 μL of substrate ATP (20 μM), and incubated for 2 h at room temperature. Then, 2.5 μL of ADP-Glo™ Reagent was added to each reaction and incubated for 2 h at room temperature to deplete the remaining ATP. Finally, 5 μL of Kinase Detection Reagent was added to each reaction to convert ADP to ATP via the luciferase reaction, which was detected using an EnVision multilabel plate reader. 22b was used as a positive control in the assay. Our previous work validated that Drak2 inhibitors can prevent pancreatic β cells from undergoing lipotoxicity-induced cell apoptosis. Therefore, we established a kinase activity detection assay in vitro using the ADP-Glo^TM Kinase Assay kit (Promega, Madison, WI, USA) and screened the Natural Product and Derivatives Focus Library to identify small molecules that can inhibit Drak2 activity. […]

## O=c1cc(-c2ccc(O)c(O)c2)oc2cc(O)cc(O)c12 [luteolin]
  remaining activity at 20 µM: 7.74 ± 1.75%
